Assay [1] has as its target T1, Mcl-1 (Homo sapiens, UniProt Q07820).
T1 construct: made in house; host or cells: E. coli
As to the kind of experiment: Fluorescence polarization assay, Bim BH3 peptide binding to GST-Mcl-1. The source says:
A nineteen amino acid peptide, corresponding to the BH3 domain of Bim, with the sequence FITC-GGGIAQELRRIGDEFNAY (SEQ ID NO: 1) was labeled with the tluorophore FITC according to the manufacturer's instructions (Molecular Probes, Eugene, Oreg.). This sequence was identified as being able to bind to purified Bcl-xL protein (Sattler et al. (1997) Science 275(5302): 983-86) and to have biological activity in cells (Holinger et al. J. Biol. Chem. 274; 13298-1330).
In addition, recombinant GST -Mcl-1 and GST-Bcl-xL fusion proteins were generated in E.coli and purified using glutathione-sepharose beads using conventional techniques known to those skilled in the fields of biochemistry and molecular biology, (methods for preparation are described in Strategies for Protein Purification and Characterization, Marshak, D, Kadonga, J, Burgess R, Knuth, M, Brennan, W, Sue-Hwa, L, CSH press, Cold Spring Harbor, N.Y.). Binding of the recombinant proteins to the fluorescent Bim BH3 domain was confirmed by titration of increasing concentrations of the recombinant proteins against a constant amount of labeled Bim peptide (16.65 nM). Quantitation of binding was accomplished by FP assay with mP measurements made on the Analyst-GT reader (Molecular Devices, Sunnyvale, Calif.).
Further, the ability of compound A to disrupt the interaction between the fluorescent Bim BH3 peptide and the two fusion proteins was assessed using a fluorescence polarization assay. The Bim peptide (in solution at 4 nano-Molar) and either GST-Mcl-1 (in solution at 12.5 nM) or GST-Bcl-xL (in solution at 11.8 nM) were first combined together in phosphate buttered saline buffer, and then the compound solution in DMSO was added to final concentrations ranging from 10 μM to 0.1 nM). Normally the unbound Bim polypeptide results in polarization of 5 mP units. Upon binding of the GST-Bcl-xL and GST-Mcl-1 fusion protein, polarization increased to 100 mP units.
Experiments are performed using the fluorescence polarization assay as described in Example 2. Either Bcl-xL or Mcl-1 fusion proteins were titrated and maximum mp shift indicate binding concentrations for drug titration studies, as described in Example 2. Compound II-19, was titrated from 10 μM to 0.1 nM in 2 fold serial dilution into the peptide/protein solution. The IC50 for blocking each BH3 peptide from Mcl-1 are assessed using FP, as described in Example 2.
Experiments are performed using the fluorescence polarization assay as described in Example 2. Either GST-Bcl-xL or GST-Mcl-1 fusion proteins were titrated and maximum mp shift indicate binding concentrations for drug titration studies, as described in Example 2. Compound II-20, was titrated from 10 μM to 0.1 nM in 2-fold serial dilution into the peptide/protein solution. The IC50 for blocking each BH3 peptide from Mcl-1 are assessed using FP, as described in Example 2.
(In fluorescence polarisation assays a small probe gives low polarisation when free and higher when bound to something large.)

For assay [2], the system named is AML-3 acute myelogenous leukemia cell line. Description: Cell viability MTS assay, AML-3. Type of assay: cell-based. Particulars: Homo sapiens, AML3, 48 hours, read-out: EC50, cell killing in AML-3. As to the method:
The lymphoid derived cell lines DHL-6 and DHL-10 were obtained from Anthony Letai of the Dana Father Cancer Research Institute, Boston, Mass. The […] derived cell line NCP-H929 was obtained irons, the NIH/NCI cell repository. AML-3 cells were obtained from Dr. Michael Andreef (MD Anderson Cancer Center, Houston, Tex.). Cells were grown in RPMI 1640 medium (GIBCO-BRL) supplemented with Pen-strep-glutamine (Gibco 10378) and 5% fetal bovine serum.
Cells were expanded in tissue culture in appropriate media and then subcultured into 96-well plates at a seeding density of 20,000-40,000 cells per well, and cells were treated with one or more compounds that were titrated info appropriate medium with FCS. Cell lines were treated with compound A at concentrations ranging from 25 μM to 25 nM. The BH3-mimetic obatoclax (Nguyen M et al. (2007), Proc. Natl. Acad. Sci. USA 104:19512-19517) was also tested against the SUDHL-6, SUDHL-10, and NCI-H929 cell lines. Cells were treated for 48 hours and scored for viability using the MTS assay (Promega). Growth inhibition was indicated as a percentage of control cell growth. Growth was determined by measuring the A570 (control cells)—A570 (treated cells)/A570 (control cells). EC50 values were calculated using Graphpad Prizm software.
(Tetrazolium dyes change colour on reduction, which living cells bring about.)

For assay [3], the system named is NCI H929 tumors. Description: NCI H929 human myeloma xenograft model in mice. Format: in vivo, mouse. The settings on record: vehicle 2300 mm^3. Here is the method: Cell Culture: Tumor cell line NCI H929 was cultured according to ATCC recommendations in […] containing 10% fetal bovine serum and pen-strep. On the day of implantation, cells were washed 1× with phosphate buffered saline (PBS) and harvested via centrifugation. Cells were pelleted (5 min at 1000 rpm, RT) then resuspended in serum-free matrigel and kept on ice until implantation.
Tumor Cell Implantation: The cell line was implanted via subcutaneous injection on the right rear flank at a volume of 200 μl containing 3×10^7 cells per mouse; the injection site was cleaned using alcohol before and after injection to prevent any infection.
Tumor Assessment: Beginning 1 week post cell implantation all animals were weighed and tagged and tumors were measured and body weights taken 3 times weekly (length×width×height) on Monday, Wednesday, and Friday for the duration of study. Once an average tumor volume of 100-200 mm^3 was reached, animals were randomized and placed into 4 treatment groups of a minimum of 10 mice per group based on tumor size. Randomization was determined by tumor volume (length×width×height)[…] for all of the mice and average volume was calculated using a average function in Excel (Microsoft Professional).
Treatment: The study involved 4 groups of 10 animals per group. Animals in all dose groups were weighed on days of tumor measurement. All doses were administered i.p. at 10 mL/kg. The Bortezormib (1 mg/kg) group was once every 3 days for 15 days. The mice receiving vehicle and compound II-19 were dosed every second day. Compound II-19 was formulated in 1% DMSO, 10 mM Tris pH 8, 30% hydroxypropyl-beta-cyclodextrin; this vehicle was used as the “vehicle” control. Bortezomib was formulated in 30% propylene glycol, 5% Tween 80, 3.3% dextrose in water, pH 4, 1% DMSO.
Background: In xenograft studies the graft and the host belong to different species.

Structures are written as SMILES.

This is an account of results in US9351971B2, “Substituted 2,2′-biphenazines for treating diseases” (Eutropics Pharmaceuticals, Inc., priority 2010, dated 2016).

T1 sequence (Q07820 whole entry): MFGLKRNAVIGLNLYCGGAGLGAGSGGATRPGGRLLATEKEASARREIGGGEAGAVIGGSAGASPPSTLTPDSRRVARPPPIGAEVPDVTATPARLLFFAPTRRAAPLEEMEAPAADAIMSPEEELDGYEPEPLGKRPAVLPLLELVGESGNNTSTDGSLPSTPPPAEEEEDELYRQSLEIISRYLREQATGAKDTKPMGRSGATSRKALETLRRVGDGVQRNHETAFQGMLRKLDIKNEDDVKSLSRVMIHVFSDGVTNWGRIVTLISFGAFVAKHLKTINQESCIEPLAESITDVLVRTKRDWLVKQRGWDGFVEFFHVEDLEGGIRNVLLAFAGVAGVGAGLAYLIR

Broadly, the IC50 is the concentration at which inhibition is half-maximal. Broadly, the EC50 is the concentration needed to bring the measured effect to its halfway point. Consider `COC(=O)c1ccc(O)c2nc3c(C=O)c(O)c(-c4c(O)c(C=O)c5nc6c(O)ccc(C(=O)OC)c6nc5c4O)c(O)c3nc12` [II-19, dimethyl 4,4′-diformyl-1,1′,3,3′,6,6′-hexahydroxy-[2,2′-biphenazine]-9,9′-dicarboxylate], for which the IC50 in assay [1] (fluorescence polarization, Bim-BH3-FITC peptide, GST-Mcl-1, read-out: IC50, inhibition of Bim-BH3 peptide binding to Mcl-1) is 0.007 µM. Besides, the “preference for inhibition of Mcl-1 vs. Bcl-xL” value in assay [1] (ratio of FP IC50 values) is reported as 2 fold. The EC50 in assay [2] was determined as 10 µM. Also, the “average tumor size at the end of the study” value is recorded as 1740 mm^3 in assay [3] (1 mg/kg i.p. every second day) and 1600 mm^3 in assay [3] (3 mg/kg i.p. every second day).
